Data set [1] is described as follows: collision cross section (TIMS, N2 drift gas) of the primary ion; higher = larger gas-phase ion size. As to the method:
(§1)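 Reference mixture of environmental contaminants analysed by RP-LC (BEH C18, 50 °C; ESI+ with water/MeOH plus formic acid and ammonium formate, ESI- with ammonium bicarbonate) coupled to a timsTOF Pro 2 with trapped ion mobility in nitrogen (ramp/accumulation 100 ms). CCS was calibrated with Agilent tune mix (CCS compendium) and averaged over five injections at 0.5-500 ng/mL. The table reports the lowest-CCS (putative monomer) peak; retention times are on the same gradient.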

A short description of data set [2]: reversed-phase LC retention time (C18, 15 min MeOH gradient); higher = more hydrophobic / later elution. How it is done:
as §1

The mark [3] stands for this setting: ionization mode: ESI+, ion species: [M+H]+.
Setting [4] is: ionization mode: ESI-, ion species: [M-H]-.

For `CCC(C)(C)C(=O)OC1=C(c2ccc(Cl)cc2Cl)C(=O)OC12CCCCC2` [Spirodiclofen], in data set [1] (setting [3]), the collision cross section stood at 193.38 Å². Also, the “reversed-phase LC retention time” value in data set [2] (setting [3]) came to 11.5 min.

Consider `CCCCCCCCOc1ccc(C(=O)c2ccccc2)c(O)c1` [2-Hydroxy-4-(octyloxyl)benzophenone], for which the collision cross section worked out at 193.92 Å² in data set [1] (setting [3]) and 193.31 Å² in data set [1] (setting [4]). For the same compound, the “reversed-phase LC retention time” value in data set [2] (setting [3]) was 18.9 min; in data set [2] (setting [4]), 19.6 min.

Turning to `COc1ccc2[nH]cc(CCNC(C)=O)c2c1` [Melatonin], the figures for the collision cross section in data set [1] (setting [3]) and in data set [1] (setting [4]) were 153.65 Å² and 154.96 Å², respectively. The “reversed-phase LC retention time” value was 9.66 min in data set [2] (setting [3]) and 9.81 min in data set [2] (setting [4]).

`Clc1ccc2c(c1)CCc1cccnc1C2=C1CCNCC1` [Desloratadine] had a collision cross section in data set [1] (setting [3]) of 176.94 Å². The “reversed-phase LC retention time” value in data set [2] (setting [3]) turned out to be 11.7 min.

For `CCN1CCCC1=O` [1-Ethyl-2-pyrrolidinone], the collision cross section in data set [1] (setting [3]) came to 120.11 Å². In data set [2] (setting [3]), the “reversed-phase LC retention time” value stood at 6.97 min.

On to `C[C@@H](CCC(=O)O)C1CCC2C3C(=O)CC4C[C@H](O)CC[C@]4(C)C3CC[C@@]21C` (stereo partly specified) [7-Oxolithocholic acid], for which the collision cross section in data set [1] (setting [3]) was found to be 204.58 Å²; in data set [1] (setting [4]), 208.67 Å². Besides, the entries for the “reversed-phase LC retention time” value in data set [2] (setting [3]) and in data set [2] (setting [4]) were 15.8 min and 14.3 min, respectively.

With `CCCCc1ncc(/C=C(\Cc2cccs2)C(=O)O)n1Cc1ccc(C(=O)O)cc1` [Eprosartan], the collision cross section stood at 206.28 Å² in data set [1] (setting [3]) and 198.36 Å² in data set [1] (setting [4]). Further, the results for the “reversed-phase LC retention time” value in data set [2] (setting [3]) and in data set [2] (setting [4]) were 11.2 min and 10 min, respectively.

`COC(=O)CCc1cc(C(C)(C)C)c(O)c(C(C)(C)C)c1` [Methyl 3-(3,5-di-tert-butyl-4-hydroxyphenyl)propionate] had a collision cross section in data set [1] (setting [4]) of 179.88 Å². In addition, the “reversed-phase LC retention time” value in data set [2] (setting [4]) came out at 17.3 min.

Regarding `O=C1Nc2ccc(Cl)cc2C(C#CC2CC2)(C(F)(F)F)O1` (stereo unspecified) [Efavirenz], the collision cross section in data set [1] (setting [3]) turned out to be 168.93 Å²; in data set [1] (setting [4]), 167.59 Å². The entries for the “reversed-phase LC retention time” value in data set [2] (setting [3]) and in data set [2] (setting [4]) were 15.4 min and 15.8 min, respectively.

As to `Fc1ccc(C2(Cn3cncn3)OC2c2ccccc2Cl)cc1` (stereo unspecified) [Epoxiconazole], in data set [1] (setting [3]), the collision cross section came to 176.09 Å². The “reversed-phase LC retention time” value in data set [2] (setting [3]) came out at 14.9 min.

In data set [1] (setting [3]), `CC(C)C1(C)N=C(c2ncccc2C(=O)O)NC1=O` (stereo unspecified) [Imazapyr] showed a collision cross section of 156.96 Å². In data set [2] (setting [3]), the “reversed-phase LC retention time” value amounted to 8.78 min.

`CC/C(=C(\c1ccccc1)c1ccc(OCCN(C)C)cc1)c1ccccc1` [Tamoxifen] came in with a collision cross section in data set [1] (setting [3]) of 198.29 Å². Further, in data set [2] (setting [3]), the “reversed-phase LC retention time” value was found to be 15.7 min.

Compound `O=C(OC1CCCCC1)c1ccccc1C(=O)OC1CCCCC1` [Dicyclohexylphthalate] gave a collision cross section in data set [1] (setting [3]) of 187.61 Å². In addition, the “reversed-phase LC retention time” value in data set [2] (setting [3]) worked out at 17.5 min.

In the case of `C#CC(C)(C)NC(=O)c1cc(Cl)cc(Cl)c1` [Propyzamide], in data set [1] (setting [3]), the collision cross section is listed as 158.35 Å². The “reversed-phase LC retention time” value in data set [2] (setting [3]) came to 14.2 min.

`CNS(=O)(=O)c1ccccc1` [N-Methylbenzenesulfonamide] showed a collision cross section in data set [1] (setting [4]) of 134.48 Å². The “reversed-phase LC retention time” value in data set [2] (setting [4]) came out at 8.4 min.

For the compound `CCCC(Cn1cncn1)c1ccc(Cl)cc1Cl` (stereo unspecified) [Penconazole], the collision cross section in data set [1] (setting [3]) was 166.33 Å². The “reversed-phase LC retention time” value in data set [2] (setting [3]) was 15.5 min.

Compound `N#Cc1nn(-c2c(Cl)cc(C(F)(F)F)cc2Cl)c(N)c1S(=O)(=O)C(F)(F)F` [Fipronil sulfone] returned a collision cross section in data set [1] (setting [4]) of 178.27 Å². Besides, in data set [2] (setting [4]), the “reversed-phase LC retention time” value is 16.1 min.

Turning to `C#CCOc1ccc(CCNC(=O)C(OCC#C)c2ccc(Cl)cc2)cc1OC` (stereo unspecified) [Mandipropamid], the collision cross section in data set [1] (setting [3]) is listed as 194.91 Å²; in data set [1] (setting [4]) it was 195.62 Å². Besides, the “reversed-phase LC retention time” value in data set [2] (setting [3]) came out at 14.2 min; in data set [2] (setting [4]), 14.6 min.

Consider `CN1C(=O)C(O)N=C(c2ccccc2)c2cc(Cl)ccc21` (stereo unspecified) [Temazepam], for which, in data set [1] (setting [3]), the collision cross section stood at 167.53 Å². Moreover, the “reversed-phase LC retention time” value in data set [2] (setting [3]) came out at 13.4 min.

With `CCOP(=S)(OCC)SCSP(=S)(OCC)OCC` [Ethion], in data set [1] (setting [3]), the collision cross section worked out at 176.99 Å². Further, the “reversed-phase LC retention time” value in data set [2] (setting [3]) was 16.9 min.

Consider `CC12CCC(=O)C=C1C=CC1[C@@H]2CCC2(C)[C@H]1CCC21CCC(=O)O1` (stereo partly specified) [Canrenone], for which the collision cross section in data set [1] (setting [3]) was determined as 186.86 Å². The “reversed-phase LC retention time” value in data set [2] (setting [3]) is 14.2 min.

Regarding `CCCN(CC)CC1COC2(CCC(C(C)(C)C)CC2)O1` (stereo unspecified) [Spiroxamine], in data set [1] (setting [3]), the collision cross section turned out to be 177.53 Å². Moreover, the “reversed-phase LC retention time” value in data set [2] (setting [3]) is 14.2 min.

With `N#Cc1cc(Cl)c(O)c(Cl)c1` [Chloroxynil], the collision cross section in data set [1] (setting [4]) stood at 125.1 Å². In addition, in data set [2] (setting [4]), the “reversed-phase LC retention time” value was found to be 6.76 min.

Compound `CCCCCCCC/C=C\CCCCCCCC(N)=O` [Oleic acid amide] yielded a collision cross section in data set [1] (setting [3]) of 177.48 Å². The “reversed-phase LC retention time” value in data set [2] (setting [3]) was 18.5 min.

On to `C=C1C[C@@H]2[C@H](CC[C@]3(C)C(=O)CC[C@@H]23)[C@@]2(C)C=CC(=O)C=C12` [Exemestane], for which the collision cross section in data set [1] (setting [3]) is listed as 173.31 Å². Moreover, in data set [2] (setting [3]), the “reversed-phase LC retention time” value turned out to be 13.9 min.

Take `CC#Cc1cc(C)nc(Nc2ccccc2)n1` [Mepanipyrim]: the collision cross section in data set [1] (setting [3]) is recorded as 152.51 Å². Also, the “reversed-phase LC retention time” value in data set [2] (setting [3]) amounted to 14.6 min.

With `C[C@H]1C[C@@H]2[C@H]([C@@H](O)C[C@@]3(C)[C@H]2CC[C@]3(O)C(=O)CO)[C@@]2(C)C=CC(=O)C=C12` [6alpha-Methylprednisolone], the collision cross section in data set [1] (setting [3]) is 190.78 Å². In addition, the “reversed-phase LC retention time” value in data set [2] (setting [3]) is 13.3 min.

Source of the values: the supplement of paper PMC12613149.
